# Test results published in patent publication EP4603105A1, “PHARMACEUTICAL COMPOSITION CONTAINING CYCLIC COMPOUND HAVING SELECTIVE KRAS INHIBITORY EFFECT AGAINST HRAS AND NRAS” (CHUGAI SEIYAKU KABUSHIKI KAISHA, priority 2022, dated 2024).
# Where a SMILES comes first, the peptide text is derived from it. Bridges are numbered along the chain shown (N, C = ends). [ ]: non-standard residue; d: D form. The star is where a group is joined. hPhe(3-Cl-4-CF3) = N[C@@H](CCc1ccc(C(F)(F)F)c(Cl)c1)C(=O)O; NPrPhe(4-CF3) = CCCN[C@@H](Cc1ccc(C(F)(F)F)cc1)C(=O)O; NMeGly(cPent) = CN[C@H](C(=O)O)C1CCCC1; NMeL = CN[C@@H](CC(C)C)C(=O)O; Morpholide = C1CN(*)CCO1; Aze = O=C(O)[C@@H]1CCN1; Ac4c = NC1(C(=O)O)CCC1; Sar = CNCC(=O)O
# What was measured:
# [1] = tested on: human lung cancer strain NCI-H441; type: cell-based
# How it was run: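 Readout: […] after the ATP-based reagent. Compound: serial dilutions in dimethyl sulfoxide.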
# HRAS wild-type protein = HRAS wild-type protein (Homo sapiens, UniProt P01112); assay: Binding to HRAS by surface plasmon resonance (SPR), KD and KD ratio to KRAS
# Chain of HRAS wild-type protein (P01112 whole entry): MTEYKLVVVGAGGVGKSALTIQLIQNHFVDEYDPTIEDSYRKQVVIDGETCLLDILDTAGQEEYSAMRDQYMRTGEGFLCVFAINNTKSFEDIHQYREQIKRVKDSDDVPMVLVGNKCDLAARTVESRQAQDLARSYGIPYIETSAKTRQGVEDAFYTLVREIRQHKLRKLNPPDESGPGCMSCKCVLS
# How it was run: (§1)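 Affinity is measured by surface plasmon resonance at 30°C against captured, GDP-loaded RAS carrying a biotinylated Avi tag. Compounds are titrated by single-cycle kinetics, and KD comes from a 1:1 fit.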
# [2] = target: GDP-bound NRAS wild-type protein (Homo sapiens, UniProt P01111); assay: Binding to NRAS by surface plasmon resonance (SPR), KD and KD ratio to KRAS
# Chain of GDP-bound NRAS wild-type protein (P01111 whole entry): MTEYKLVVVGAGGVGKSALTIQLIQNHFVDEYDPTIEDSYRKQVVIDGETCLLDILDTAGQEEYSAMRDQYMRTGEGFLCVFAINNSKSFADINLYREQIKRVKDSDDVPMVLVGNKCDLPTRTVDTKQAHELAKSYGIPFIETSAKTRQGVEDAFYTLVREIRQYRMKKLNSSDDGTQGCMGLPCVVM
# How it was run: as §1
# [3] = target: GDP-bound KRAS wild-type protein (Homo sapiens, UniProt P01116); assay: Binding to KRAS by surface plasmon resonance (SPR), dissociation constant KD; conditions: 1:1 binding model
# Chain of GDP-bound KRAS wild-type protein (P01116 1-188 isoform P01116-2): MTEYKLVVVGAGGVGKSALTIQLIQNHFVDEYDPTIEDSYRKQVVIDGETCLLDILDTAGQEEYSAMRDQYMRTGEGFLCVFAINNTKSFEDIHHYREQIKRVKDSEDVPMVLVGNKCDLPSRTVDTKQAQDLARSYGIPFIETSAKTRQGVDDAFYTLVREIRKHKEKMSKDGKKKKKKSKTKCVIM
# How it was run: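 Read-out is KD from 1:1 fitting of single-cycle kinetics sensorgrams, blank-cycle and reference-surface corrected. Proteins were GDP-loaded, biotinylated Avi-fusions freshly captured each cycle at roughly 100–300 RU. Runs were at 30°C in HBS pH 7.4 with MgCl2, GDP and 4% DMSO.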
# [4] = ratio of the KD value with respect to HRAS wild-type protein to the KD value with respect to KRAS
# [5] = ratio of the KD value with respect to GDP-bound NRAS wild-type protein to the KD value with respect to KRAS
# [6] = ratio of KD for HRAS wild-type protein to KD for KRAS
# [7] = ratio of KD for GDP-bound NRAS wild-type protein to KD for KRAS
Structure (SMILES),IC50 [1] [nM],Kd ([3]; Single Cycle Kinetics) [nM],Kd [3] [nM],HRAS /KRAS (HRAS wild-type protein; [4]),"NRAS /KRAS [2, 5]",HRAS /KRAS (HRAS wild-type protein; [6]),"NRAS /KRAS [2, 7]"
CCO[C@@H]1C[C@H]2C(=O)NC3(CC(C)(C)C3)C(=O)N(C)[C@@H](C3CCCC3)C(=O)N(C)[C@H](C(=O)N(C)C)CC(=O)N(C)[C@@H]([C@H](C)OC)C(=O)N[C@@H]([C@@H](C)CC)C(=O)N3CCC[C@H]3C(=O)N(C)[C@H]3C/C=C\CCN(C3=O)[C@@H](Cc3ccc(C(F)(F)F)cc3)C(=O)N(C)CC(=O)N[C@@H](CCc3ccc(C(F)(F)F)c(OC)c3)C(=O)N2C1 [PP3179],70.9,,0.77,,,A (a compound having 10 or more and less than 20 is denoted as A),A (a compound having 10 or more and less than 20 is denoted as A)
CCCN(C)C(=O)[C@@H]1CC(=O)N(C)[C@@H](CC(C)C)C(=O)N[C@@H]([C@@H](C)CC)C(=O)N(C)CC(=O)N(C)[C@H]2C/C=C\CCN(C2=O)[C@@H](Cc2ccc(C(F)(F)F)cc2)C(=O)N(C)CC(=O)N[C@@H](CCc2cc(F)c(C(F)(F)F)c(F)c2)C(=O)N2C[C@H](OCC)C[C@H]2C(=O)NC2(COC2)C(=O)N(C)[C@@H](C2CCCC2)C(=O)N1C [PP1938],34.6,0.34,,A (a compound having 10 or more and less than 20 is denoted as A),AA (a compound having 20 or more is denoted as AA),,
CCC[C@H]1C(=O)N[C@@H]([C@@H](C)CC)C(=O)N(C)CC(=O)N(C)[C@H]2C/C=C\CCN(C2=O)[C@@H](Cc2ccc(C)cc2)C(=O)N(C)CC(=O)N[C@@H](CCc2ccc(C(F)(F)F)c(OC)c2)C(=O)N2C[C@H](OCC)C[C@H]2C(=O)NC2(CC(C)(C)C2)C(=O)N(C)[C@@H](CC(C)C)C(=O)N(C)[C@H](C(=O)N(C)C)CC(=O)N1C [PP3008],16,,0.38,,,A (a compound having 10 or more and less than 20 is denoted as A),A (a compound having 10 or more and less than 20 is denoted as A)
CCCN1C(=O)CN(C)C(=O)[C@@H]2CCN2C(=O)[C@H]([C@@H](C)CC)NC(=O)[C@H](CC(C)C)N(C)C(=O)C[C@@H](C(=O)N2CCOCC2)NC(=O)[C@H](C2CCCC2)N(C)C(=O)C2(CCC2)NC(=O)[C@@H]2CCCN2C(=O)[C@H](CCc2ccc(C(F)(F)F)c(Cl)c2)NC(=O)CN(C)C(=O)[C@@H]1Cc1ccc(C(F)(F)F)cc1 [PP0338] ([NMeL]I[Aze][Sar][NPrPhe(4-CF3)][Sar][hPhe(3-Cl-4-CF3)]P[Ac4c][NMeGly(cPent)]D-Morpholide; lactam N-11),296,,3.6,,,B (a compound having 3 or more and less than 10 is denoted as B),B (a compound having 3 or more and less than 10 is denoted as B)

# Now those with a lower IC50 [1], led by results:
IC50 [1] [nM],Kd ([3]; Single Cycle Kinetics) [nM],Kd [3] [nM],Structure (SMILES),HRAS /KRAS (HRAS wild-type protein; [4]),"NRAS /KRAS [2, 5]",HRAS /KRAS (HRAS wild-type protein; [6]),"NRAS /KRAS [2, 7]"
7.7,,0.073,CCC[C@H]1C(=O)N[C@@H]([C@@H](C)CC)C(=O)N(C)CC(=O)N(C)[C@H]2C/C=C\CCN(C2=O)[C@@H](Cc2ccc(C)cc2)C(=O)N(C)CC(=O)N[C@@H](CCc2ccc(C(F)(F)F)c(OC)c2)C(=O)N2CC3(CC3)C[C@H]2C(=O)NC2(CC(C)(C)C2)C(=O)N(C)[C@@H](CC(C)(C)C)C(=O)N(C)[C@H](C(=O)N(C)C)CC(=O)N1C [PP3009],,,A (a compound having 10 or more and less than 20 is denoted as A),A (a compound having 10 or more and less than 20 is denoted as A)
3.7,0.14,,CCCOC[C@H]1C(=O)N[C@@H]([C@@H](C)CC)C(=O)N(C)CC(=O)N(C)[C@H]2C/C=C\CCN(C2=O)[C@@H](Cc2ccc(C)cc2)C(=O)N(C)CC(=O)N[C@@H](CCc2ccc(C(F)(F)F)c(OC)c2)C(=O)N2C[C@H](OCC)C[C@H]2C(=O)N(C)C2(CCC2)C(=O)N(C)[C@@H](C(CC)CC)C(=O)N(C)[C@H](C(=O)N(C)C)CC(=O)N1C [PP2323],A (a compound having 10 or more and less than 20 is denoted as A),A (a compound having 10 or more and less than 20 is denoted as A),,
2.9,0.013,,CCO[C@@H]1C[C@H]2C(=O)NC3(CCC3)C(=O)N(C)[C@@H](C3CCCC3)C(=O)N(C)[C@H](C(=O)N(C)C)CC(=O)N(C)[C@@H](CC3CCCC3)C(=O)N[C@@H]([C@@H](C)CC)C(=O)N(C)CC(=O)N(C)[C@H]3CCCCN(C3=O)[C@@H](Cc3ccc(C(F)(F)F)cc3)C(=O)N(C)CC(=O)N[C@@H](CCc3cc(F)c(C(F)(F)F)c(F)c3)C(=O)N2C1 [PP0700],B (a compound having 3 or more and less than 10 is denoted as B),C (A compound having a KD ratio of 0.1 or more and less than 3 is denoted as C),,
